Experimental data taken from publication PMC10092844, “Inhibition profile of trifludimoxazin towards PPO2 target site mutations” (Pest Management Science, 2022).
Residue numbers refer to the chain shown, from its start.

Key:
[1] = biological target: T1, PPO2 R128T ΔG210 (Amaranthus tuberculatus, UniProt Q0NZW9, DEL210-210/R128T); assay type: biochemical
T1 sequence (Q0NZW9 with tags, fused parts or gaps R128T/DEL210-210): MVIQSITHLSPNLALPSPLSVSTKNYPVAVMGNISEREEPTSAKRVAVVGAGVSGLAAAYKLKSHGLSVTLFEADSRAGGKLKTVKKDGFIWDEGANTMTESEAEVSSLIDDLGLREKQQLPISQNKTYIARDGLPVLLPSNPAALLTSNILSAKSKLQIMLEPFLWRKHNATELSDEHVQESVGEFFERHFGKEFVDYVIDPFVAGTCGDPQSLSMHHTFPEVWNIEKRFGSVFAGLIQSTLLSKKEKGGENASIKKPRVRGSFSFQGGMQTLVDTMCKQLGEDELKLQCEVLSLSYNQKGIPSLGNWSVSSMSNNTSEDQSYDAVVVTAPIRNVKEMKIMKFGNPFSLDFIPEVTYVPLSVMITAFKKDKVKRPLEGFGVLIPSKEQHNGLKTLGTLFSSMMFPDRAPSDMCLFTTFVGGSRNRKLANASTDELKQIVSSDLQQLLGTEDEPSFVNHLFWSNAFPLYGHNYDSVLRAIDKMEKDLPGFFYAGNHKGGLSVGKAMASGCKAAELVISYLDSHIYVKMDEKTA

[2] = biological target: T2, PPO2 R128A ΔG210 (Amaranthus tuberculatus, UniProt Q0NZW9, DEL210/R128A); experiment: biochemical; assay type: biochemical
T2 sequence (Q0NZW9 with tags, fused parts or gaps R128A/DEL210): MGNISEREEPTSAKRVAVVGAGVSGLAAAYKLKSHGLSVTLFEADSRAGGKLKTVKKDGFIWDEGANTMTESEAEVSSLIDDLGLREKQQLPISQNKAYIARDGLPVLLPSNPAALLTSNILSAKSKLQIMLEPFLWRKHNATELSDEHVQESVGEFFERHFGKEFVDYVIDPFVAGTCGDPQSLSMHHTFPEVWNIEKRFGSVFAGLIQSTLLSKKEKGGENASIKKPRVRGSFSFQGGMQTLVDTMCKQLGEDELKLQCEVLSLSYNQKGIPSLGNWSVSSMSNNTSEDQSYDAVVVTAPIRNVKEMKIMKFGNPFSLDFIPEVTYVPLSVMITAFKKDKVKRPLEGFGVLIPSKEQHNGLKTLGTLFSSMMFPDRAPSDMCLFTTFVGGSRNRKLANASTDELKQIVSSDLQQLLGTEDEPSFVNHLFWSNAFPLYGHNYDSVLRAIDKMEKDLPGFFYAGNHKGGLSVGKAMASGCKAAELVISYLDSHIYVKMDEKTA

[3] = biological target: T3, PPO2 R128N ΔG210 (Amaranthus tuberculatus, UniProt Q0NZW9, DEL210-210/R128N); experiment: biochemical; assay type: biochemical
T3 sequence (Q0NZW9 with tags, fused parts or gaps R128N/DEL210-210): T2 sequence (Q0NZW9 with tags, fused parts or gaps R128A/DEL210) with A98N

[4] = biological target: T4, PPO2 R128N ΔG210 in Escherichia coli hemG (Amaranthus tuberculatus, UniProt Q0NZW9, DEL210-210/R128N, cells depend on it); assay type: cell-based; details: read-out: IC50 (E. coli hemG growth)
T4 sequence (Q0NZW9 with tags, fused parts or gaps R128N/DEL210-210): T2 sequence (Q0NZW9 with tags, fused parts or gaps R128A/DEL210) with A98N

[5] = biological target: T5, PPO2 R128H ΔG210 in Escherichia coli hemG (Amaranthus tuberculatus, UniProt Q0NZW9, DEL210/R128H, cells depend on it); assay type: cell-based; details: read-out: IC50 (E. coli hemG growth)
T5 sequence (Q0NZW9 with tags, fused parts or gaps R128H/DEL210): T1 sequence (Q0NZW9 with tags, fused parts or gaps R128T/DEL210-210) with T128H

[6] = biological target: T6, PPO2 R128M ΔG210 in Escherichia coli hemG (Amaranthus tuberculatus, UniProt Q0NZW9, DEL210-210/R128M, cells depend on it); assay type: cell-based; details: read-out: IC50 (E. coli hemG growth)
T6 sequence (Q0NZW9 with tags, fused parts or gaps R128M/DEL210-210): T2 sequence (Q0NZW9 with tags, fused parts or gaps R128A/DEL210) with A98M

## CS(=O)(=O)NC(=O)c1cc(Oc2ccc(C(F)(F)F)cc2Cl)ccc1[N+](=O)[O-] [Fomesafen, fomesafen]
[1]
  IC50: > 10 µM
[2]
  IC50: > 10 µM
[3]
  IC50: > 10 µM

## CCOC(=O)C(C)OC(=O)c1cc(Oc2ccc(C(F)(F)F)cc2Cl)ccc1[N+](=O)[O-] (centres unmarked) [Lactofen, lactofen]
[4]
  IC50: > 10 µM
[1]
  IC50: 3.92 µM
[3]
  IC50: > 10 µM
[5]
  IC50: > 10 µM
[6]
  IC50: > 10 µM

## CC(C)N(C)S(=O)(=O)NC(=O)c1cc(-n2c(=O)cc(C(F)(F)F)n(C)c2=O)c(F)cc1Cl [Saflufenacil, saflufenacil]
[4]
  IC50: > 10 µM
[1]
  IC50: > 10 µM
[2]
  IC50: > 10 µM
[3]
  IC50: > 10 µM
[5]
  IC50: > 10 µM
[6]
  IC50: > 10 µM

## C#CCN1C(=O)C(F)(F)Oc2cc(F)c(-n3c(=O)n(C)c(=S)n(C)c3=O)cc21 [Trifludimoxazin, trifludimoxazin]
[4]
  IC50: 0.00987 µM
[1]
  IC50: 0.0748 µM
  Resistance factor: 305
[2]
  IC50: 0.033 µM
  Resistance factor: 135
[3]
  IC50: 0.175 µM
  Resistance factor: 714
[5]
  IC50: 0.09 µM
[6]
  IC50: 0.0674 µM
